{"source": "patent US6960456B1", "about": "“Method for preparing conjugated linoleic acid” (Valio Ltd., priority 1999, dated 2005)", "key": {"[1]": {"tested_on": "Propionibacterium freudenreichii ssp. shermanii JS (PJS)", "test": "Growth of PJS strain in MRS medium containing linoleic acid (turbidity, Klett meter)", "assay_type": "cell-based", "settings": "for Growth (cell density of the culture as turbidity, Klett meter): 600 μg/ml linoleic acid, 30° C.", "description": "(§1) As controls were used the same medium without addition (positive growth control) and a medium to which only detergent was added. For the test, the propionic acid bacterium strains Propionibacterium freudenreichii ssp. shermanii JS (PJS), DSM 7067, and P. freudenreichii ssp. freudenreichii 131 ([…]) were first cultivated in MRS broths with • 1) no addition • 2) 600 μg/ml linoleic acid • 3) addition of 600 μg/ml linoleic acid from a stock solution containing 5 mg/ml linoleic acid and 1% of Tween 80 preparation in an aqueous solution (final content of Tween […]) • 4) addition of 0.9% of Kotilen and 600 μg/ml linoleic acid micellized according to Example 1 • 5) addition of 0.9% of Kotilen only (not linoleic acid) Each bacterium strain was cultivated in the culture medium twice at 30° C. for 72 h, whereafter each test broth was inoculated with 1% of fresh culture. The test cultures were monitored at 30° C. for 4 days by determining the cell density of the culture as turbidity with a Klett meter. At the end of cultivation (96 h), the amount of formed CLA was determined by gas chromatography, the c9,t11 isomer separately and the other isomers together."}, "propionic acid bacteria": {"tested_on": "propionic acid bacteria", "settings": "even in relatively low concentrations; cited from earlier work"}, "[2]": {"tested_on": "P. freudenreichii ssp. freudenreichii 131 (P131)", "test": "Growth of P131 strain in MRS medium containing linoleic acid (turbidity, Klett meter)", "assay_type": "cell-based, Propionibacterium freudenreichii ssp. freudenreichii", "settings": "for Growth (cell density of the culture as turbidity, Klett meter): 600 μg/ml linoleic acid, 30° C.", "description": "as §1"}, "PJS cells": {"tested_on": "PJS cells", "test": "Viable cell concentration in pH-adjusted fermentor culturing of PJS cells with micellized linoleic acid", "assay_type": "cell-based, Propionibacterium freudenreichii ssp. shermanii", "description": "The most efficient way to cultivate propionic acid bacteria on an industrial scale is to do it in a fermentor where the pH of the medium can be maintained optimal for cellular growth. A production process of conjugated linoleic acid by means of growing PJS cells was examined in fermentor cultures the solution volume being 2 liters. The whey permeate broth of Example 2 was used as growth medium. The growth broth contained micellized linoleic acid 400, 600, 1000 or 1400 μg/ml and Kotilen detergent 0.6, 0.9 or 1.5%, respectively. During the cultivation, the pH of the growth medium was maintained at 6.3 with linoleic acid concentrations of 400, 600 and 1000 μg/ml and at 6.5 with linoleic acid concentration of 1400 μg/ml by means of an automatic addition of ammonium solution. The cultivation temperature was 30° C. and the mixing rate was 100 rpm. The concentration of viable propionic acid bacteria cells was determined in buffered sodium lactate agar and the agar dishes were incubated at 30° C. anaerobically for 5 to 7 days. Table 3 compares the CLA production process in a fermentor, with the linoleic acid content in the medium of 400, 600 and 1000 μg/ml, after 94 hour cultivation, and that of 1400 μg/ml, after 108 and 132 hour cultivation."}, "breast cancer": {"tested_on": "breast cancer", "settings": "cited from earlier work"}, "[3]": {"tested_on": "mammary, stomach and colon cancer", "settings": "CLA-containing diet, compared with the reference group; cited from earlier work"}, "[4]": {"tested_on": "high density lipoprotein (HDL)", "settings": "rabbit, in vivo; cited from earlier work"}, "cancer cells": {"tested_on": "cancer cells", "settings": "tissue cultures of human cells; cited from earlier work"}, "fatty tissues": {"tested_on": "fatty tissues", "settings": "mouse, in vivo; cited from earlier work"}}}
{"molecule": "CCCCC/C=C\\C/C=C\\CCCCCCCC(=O)O", "note": "[LA, cis-9,trans-12 octadecadienoic acid]", "values": [{"measurement": "Effect on growth as compared with the control (in words)", "setting": "[1]; 600 μg/ml", "result": "inhibited the growth"}, {"measurement": "Growth (cell density of the culture as turbidity, Klett meter)", "setting": "[1]; 0 h", "result": 78}, {"measurement": "Growth (cell density of the culture as turbidity, Klett meter)", "setting": "[1]; 24 h", "result": 84}, {"measurement": "Growth (cell density of the culture as turbidity, Klett meter)", "setting": "[1]; 48 h", "result": 96}, {"measurement": "Growth (cell density of the culture as turbidity, Klett meter)", "setting": "[1]; 72 h", "result": 106}, {"measurement": "Growth (cell density of the culture as turbidity, Klett meter)", "setting": "[1]; 96 h", "result": 110}, {"measurement": "effect on the growth of propionic acid bacteria", "setting": "propionic acid bacteria", "result": "inhibitory effect"}, {"measurement": "Effect on growth as compared with the control (in words)", "setting": "[2]; 600 μg/ml", "result": "inhibited the growth"}, {"measurement": "Growth (cell density of the culture as turbidity, Klett meter)", "setting": "[2]; 0 h", "result": 80}, {"measurement": "Growth (cell density of the culture as turbidity, Klett meter)", "setting": "[2]; 24 h", "result": 90}, {"measurement": "Growth (cell density of the culture as turbidity, Klett meter)", "setting": "[2]; 48 h", "result": 97}, {"measurement": "Growth (cell density of the culture as turbidity, Klett meter)", "setting": "[2]; 72 h", "result": 107}, {"measurement": "Growth (cell density of the culture as turbidity, Klett meter)", "setting": "[2]; 96 h", "result": 115}, {"measurement": "cell concentration (cfu/ml)", "setting": "PJS cells; micellized LA 400 μg/ml, deterg. (Kotilen) 0.6%, 94 h, pH 6.3, 30° C.", "result": "1.3 × 10^10 cfu/ml"}, {"measurement": "cell concentration (cfu/ml)", "setting": "PJS cells; micellized LA 600 μg/ml, deterg. (Kotilen) 0.9%, 94 h, pH 6.3, 30° C.", "result": "1.2 × 10^10 cfu/ml"}, {"measurement": "cell concentration (cfu/ml)", "setting": "PJS cells; micellized LA 1000 μg/ml, deterg. (Kotilen) 1.5%, 94 h, pH 6.3, 30° C.", "result": "1.4 × 10^10 cfu/ml"}, {"measurement": "cell concentration (cfu/ml)", "setting": "PJS cells; micellized LA 1400 μg/ml, deterg. (Kotilen) 1.5%, 108 h, pH 6.5, 30° C.", "result": "2.4 × 10^9 cfu/ml"}, {"measurement": "cell concentration (cfu/ml)", "setting": "PJS cells; micellized LA 1400 μg/ml, deterg. (Kotilen) 1.5%, 132 h, pH 6.5, 30° C.", "result": "1.3 × 10^10 cfu/ml"}, {"measurement": "effect on breast cancer", "setting": "breast cancer", "result": "stimulating effect"}]}
{"molecule": "conjugated linoleic acid [CLA]", "values": [{"measurement": "number of mammary, stomach and colon cancer incidences", "setting": "[3]", "result": "reduced"}, {"measurement": "amount of the good high density lipoprotein (HDL)", "setting": "[4]", "result": "does not reduce"}, {"measurement": "development of cancer cells", "setting": "cancer cells", "result": "capable of inhibiting development of cancer cells"}, {"measurement": "effect on fatty tissues", "setting": "fatty tissues", "result": "split fatty tissues"}]}
